Earlier results as cited in patent US6470305B1, “Chemical analysis by morphological similarity” (priority 1998, dated 2002).

Biological target: CDK2 (Homo sapiens, UniProt P24941)
Conditions: weak inhibitor; value from Kim et al., Prog Cell Cycle Res (1996); read-out: IC50 versus CDK2

- IC50: 50 µM
SMILES: CC(C)=CCNc1ncnc2nc[nH]c12 [IPA, isopentenyl adenine]
